Results as given in US4021481A, “Amido derivatives of 2,4,6-triiodobenzoic acids containing at least one N-hydroxyalkyl and at least two hydroxyl groups” (Nyegaard & Co. A/S, priority 1969, dated 1977).
Converted amounts (≈) assume the structure as drawn. Where two headings read alike, the source gives them in different places. Blank lines part the entries; values can stand above or below the molecule they belong to.

Legend:
mice [1] = test: Intracerebral toxicity in mice (LD50); type: in vivo
From the text: (§1) As indicated above, the new non-ionic compounds according to the invention have shown markedly low levels of toxicity, especially in intracerebral tests. […] It will be seen that all the new compounds listed are very much better than the known compounds in the intracerebral test.
(§2) Intravenous and Intracerebral Toxicity
(§3) Most of the compounds were so inert that it was not physically possible to inject sufficient substance to kill 50% of the mice and in such cases only a minimum value can be given for the LD50.

Solubility in water = type: physicochemical; conditions: for solubility: water
mice [2] = test: Intravenous toxicity in mice (LD50); type: in vivo
From the text: as §1, §2, §3

[3] = Osmolality of aqueous solution; type: physicochemical; conditions: 37° C.; 300 mg I/ml
Method: As indicated above, the compounds according to the invention are of low osmolality as compared to conventional ionic contrast agents and many of the compounds show even lower osmolality values than would have been expected. The observed osmolality in each case would be expected to be about 0.8 mol/kg but compounds 3, 33, 35, 44 and 11 identified in Table I have shown osmolality values of 0.47, 0.48, 0.61, 0.53 and 0.48 mol/kg respectively at 37° C. (300 mg I ml). The last two compounds in Table 2, which are ionic compounds shown for comparison, have osmolality values of about 1.6 mol/kg.

[4] = 400 mgI/ml, dose 0.05 ml/20 g mouse
[5] = room temperature, read-out: Solubility in water at room temperature (class)
[6] = concentration administered 300 mgI/ml
[7] = 300 mgI/ml, dose 0.05 ml/20 g mouse
[8] = 300 mgI/ml, dose 0.10 ml/20 g mouse
[9] = room temperature, figure in parentheses, read-out: Solubility in water at room temperature
[10] = known compounds, dose 0.05 ml/20 g mouse, concentration not given
[11] = concentration administered 280 mgI/ml, N-methylglucamine salt

Structure (SMILES): CC(=O)N(CCO)c1c(I)c(C(=O)N(C)C[C@H](O)[C@@H](O)[C@H](O)[C@H](O)CO)c(I)c(N(CCO)C(C)=O)c1I [Compound 43, N-[3,5-bis-N-(β -hydroxyethyl)-acetamido-2,4,6-triiodobenzoyl]-N-methylglucamine]
Intracerebral LD50 (mice [1]; [4]): > 1000 mgI/kg
Intracerebral LD50 (mice [1]; 400 mgI/ml, dose 0.10 ml/20 g mouse): > 2000 mgI/kg
solubility (Solubility in water; [5]): > 500 mg/mL
Intravenous LD50 (mice [2]; [6]): 7500 mgI/kg

Structure (SMILES): CC(=O)N(CCO)c1c(I)c(C(=O)N(C)CC(O)CO)c(I)c(N(CCO)C(C)=O)c1I (stereo not shown) [Compound 44]
Intracerebral LD50 (mice [1]; [7]): > 750 mgI/kg
Intracerebral LD50 (mice [1]; [8]): > 1500 mgI/kg
Osmolality [3]: 0.53 mol/kg
solubility (Solubility in water; [5]): > 500 mg/mL

Structure (SMILES): CNC(=O)c1c(I)c(NC(C)=O)c(I)c(C(=O)O)c1I [5-Acetamido-2,4,6-triiodo-N-methylisophthalamic acid, reference compound]
Intracerebral LD50 (mice [1]; [10]): 210 mgI/kg
Intravenous LD50 (mice [2]; [11]): 6000 mgI/kg

Structure (SMILES): CNC(=O)c1c(I)c(NC(C)=O)c(I)c(C(=O)N(C)C[C@H](O)[C@@H](O)[C@H](O)[C@H](O)CO)c1I [Compound 6]
Intracerebral LD50 (mice [1]; [8]): > 1500 mgI/kg
solubility (Solubility in water; [5]): > 500 mg/mL
Intravenous LD50 (mice [2]; [6]): 10000 mgI/kg

Structure (SMILES): CC(=O)OCCN(C(C)=O)c1c(I)c(C(=O)N(C)C[C@H](O)[C@@H](O)[C@H](O)[C@H](O)CO)c(I)c(N(C)C(C)=O)c1I [Compound 36, N-[3-N-methylacetamido-5-N-(β-acetoxyethyl)-acetamido-2,4,6-triiodobenzoyl]-N-methylglucamine]
solubility (Solubility in water; [5]): 200 to 500 mg/mL (≈ 224 to 561 mM)

Structure (SMILES): CC(=O)N(CCO)c1c(I)c(C(=O)N[C@H]2C(O)O[C@H](CO)[C@@H](O)[C@@H]2O)c(I)c(N(CCO)C(C)=O)c1I (stereo partly drawn) [Compound 12, N-[N,N'-di-(β-hydroxyethyl)-3,5-diacetamido-2,4,6-triiodobenzoyl]-glucosamine]
Intracerebral LD50 (mice [1]; [8]): > 1500 mgI/kg
solubility (Solubility in water; [5]): > 500 mg/mL
Intravenous LD50 (mice [2]; concentration administered 300 mgI/ml, dose 0.8 ml/20 g mouse): > 12000 mgI/kg

Structure (SMILES): CC(=O)Nc1c(I)c(C(=O)O)c(I)c(N(C)C(C)=O)c1I [N-Methyl-3,5-diacetamido-2,4,6-triiodobenzoic acid, reference compound]
Intracerebral LD50 (mice [1]; [10]): 130 mgI/kg
Intravenous LD50 (mice [2]; [11]): 6000 mgI/kg

Structure (SMILES): CNC(=O)c1c(I)c(NC(C)=O)c(I)c(C(=O)N(CCO)C[C@H](O)[C@@H](O)[C@H](O)[C@H](O)CO)c1I [Compound 49, N-(3-Acetamido-5-N-methylcarbamoyl-2,4,6-triiodobenzoyl)-N-(2-hydroxyethyl)-glucamine]
Intracerebral LD50 (mice [1]; [8]): > 1500 mgI/kg
Intravenous LD50 (mice [2]; [6]): 15000 mgI/kg

Structure (SMILES): O=S(=O)(CI)N(CCO)CCO [Compound 29, N-(Iodomethanesulphonyl)-diethanolamine]
Solubility in cold water (Solubility in water; cold water, in words): sparingly soluble in cold
Solubility in hot water (Solubility in water; in words): Soluble in hot water

Structure (SMILES): CC(=O)N(C)c1c(I)c(C(=O)N[C@H]2C(O)O[C@H](CO)[C@@H](O)[C@@H]2O)c(I)c(N(CCO)C(C)=O)c1I (stereo partly drawn) [Compound 10, N-[3-N-(β-hydroxyethyl)-acetamido-5-N-methylacetamido-2,4,6-triiodobenzoyl]-glucosamine]
Intracerebral LD50 (mice [1]; [7]): > 750 mgI/kg
Intracerebral LD50 (mice [1]; [8]): > 1500 mgI/kg
solubility (Solubility in water; [5]): > 500 mg/mL
Intravenous LD50 (mice [2]; [6]): 8250 mgI/kg

Structure (SMILES): CC(=O)Nc1c(I)c(C(=O)N[C@@H](CO)[C@@H](O)[C@H](O)[C@H](O)CO)c(I)c(N(C)C(C)=O)c1I [Compound 15, N-(N-methyl-3,5-diacetamido-2,4,6-triiodobenzoyl)-2-glucamine]
Intracerebral LD50 (mice [1]; [8]): > 1500 mgI/kg
solubility (Solubility in water; [5]): > 500 mg/mL
Intravenous LD50 (mice [2]; concentration administered 300 mgI/ml, dose 1.0 ml/20 g mouse): > 15000 mgI/kg

Structure (SMILES): CC(=O)N(C)c1c(I)c(C(=O)N(C)CC(O)CO)c(I)c(N(CCO)C(C)=O)c1I (stereo not drawn) [Compound 4, N-[3-N-(β-hydroxyethyl)-acetamido-5-N-methylacetamido-2,4,6-triiodobenzoyl]-N-methyl-2,3-dihydroxypropylamine]
Intracerebral LD50 (mice [1]; [4]): > 1000 mgI/kg
solubility (Solubility in water; [5]): > 500 mg/mL

Structure (SMILES): O=S(=O)(O)CI [Iodomethanesulphonic acid, reference compound]
Intracerebral LD50 (mice [1]; [10]): 195 mgI/kg

The remaining lines, values ahead:

solubility (Solubility in water; [9]): 79 mg/mL (≈ 99.9 mM)
solubility (Solubility in water; [5]): < 200 mg/mL
Structure (SMILES): CC(=O)Nc1c(I)c(NC(C)=O)c(I)c(C(=O)N(C)C[C@H](O)[C@@H](O)[C@H](O)[C@H](O)CO)c1I [Compound 25, N-(3,5-diacetamido-2,4,6-triiodobenzoyl)-N-methyl-glucamine]

solubility (Solubility in water; [9]): 2.6 mg/mL (≈ 3.49 mM)
solubility (Solubility in water; [5]): < 200 mg/mL
Structure (SMILES): CC(=O)N(C)c1c(I)c(C(=O)NCC(O)CO)c(I)c(N(CCO)C(C)=O)c1I (stereo not drawn) [Compound 40, N-[3-N-methylacetamido-5-N-(β-hydroxyethyl)-acetamido-2,4,6-triiodobenzoyl]-N-(2,3-dihydroxypropyl)-amine]

solubility (Solubility in water; [9]): 255 mg/mL (≈ 350 mM)
solubility (Solubility in water; [5]): 200 to 500 mg/mL (≈ 274 to 686 mM)
Structure (SMILES): CC(=O)N(C)c1c(I)c(C(=O)N(C)CCO)c(I)c(N(CCO)C(C)=O)c1I [Compound 38, N-[3-N-methylacetamido-5-N-(β-hydroxyethyl)-acetamido-2,4,6-triiodobenzoyl]-N-methylethanolamine]

solubility (Solubility in water; [9]): 4 mg/mL (≈ 5.59 mM)
solubility (Solubility in water; [5]): < 200 mg/mL
Structure (SMILES): CC(=O)N(C)c1c(I)c(C(=O)NCCO)c(I)c(N(CCO)C(C)=O)c1I [Compound 37, N-[3-N-methylacetamido-5-N-(β-hydroxyethyl)-acetamido-2,4,6-triiodobenzoyl]-ethanolamine]

Solubility in hot water (Solubility in water; in words): Very soluble in hot water
solubility (Solubility in water; cold water, read-out: Solubility in cold water): ~100 mg/mL (≈ 250 mM)
Structure (SMILES): CN(C[C@H](O)[C@@H](O)[C@H](O)[C@H](O)CO)S(=O)(=O)CI [Compound 28, N-(Iodomethane sulphonyl)-N-methylglucamine]

solubility (Solubility in water; [9]): 8.6 mg/mL (≈ 11.1 mM)
solubility (Solubility in water; [5]): < 200 mg/mL
Structure (SMILES): CC(=O)N(C)c1c(I)c(C(=O)NC(CO)(CO)CO)c(I)c(N(CCO)C(C)=O)c1I [Compound 41, N-[3-N-methylacetamido-5-N-(β-hydroxyethyl)-acetamido-2,4,6-triiodobenzoyl]-N-[tris-(hydroxymethyl)-methyl]-amine]

solubility (Solubility in water; [5]): > 500 mg/mL
Structure (SMILES): CC(=O)Nc1c(I)c(NC(C)=O)c(I)c(C(=O)N[C@H]2C(O)O[C@H](CO)[C@@H](O)[C@@H]2O)c1I (stereo partly shown) [Compound 14, N-(3,5-diacetamido-2,4,6-triiodobenzoyl)-glucosamine]

solubility (Solubility in water; [9]): 213 mg/mL (≈ 298 mM)
solubility (Solubility in water; [5]): 200 to 500 mg/mL (≈ 280 to 699 mM)
Structure (SMILES): CC(=O)Nc1c(I)c(C(=O)N(CCO)CCO)c(I)c(N(C)C(C)=O)c1I [Compound 34, N-(N-methyl-3,5-diacetamido-2,4,6-triiodobenzoyl)-N,N-di-(β-hydroxyethyl)-amine]

solubility (Solubility in water; [5]): > 500 mg/mL
Structure (SMILES): CC(=O)N(CCO)c1c(I)c(C(=O)N(CCO)CCO)c(I)c(N(CCO)C(C)=O)c1I [Compound 5, N-[N,N'-di-(β-hydroxyethyl)-3,5-diacetamido-2,4,6-triiodobenzoyl]-diethanolamine]

solubility (Solubility in water; [5]): > 500 mg/mL
Structure (SMILES): CC(=O)N(C)c1c(I)c(C(=O)N(CCO)CCO)c(I)c(N(CCO)C(C)=O)c1I [Compound 39, N-[3-N-methylacetamido-5-N-(β-hydroxyethyl)-acetamido-2,4,6-triiodobenzoyl]-diethanolamine]

solubility (Solubility in water; [5]): > 500 mg/mL
Structure (SMILES): CC(=O)Nc1c(I)cc(I)c(C(=O)N(C)C[C@H](O)[C@@H](O)[C@H](O)[C@H](O)CO)c1I [Compound 30, N-(3-acetamido-2,4,6-triiodobenzoyl)-N-methyl-glucamine]

solubility (Solubility in water; [5]): > 500 mg/mL
Structure (SMILES): CC(=O)N(C)c1c(I)cc(I)c(C(=O)N[C@H]2C(O)O[C@H](CO)[C@@H](O)[C@@H]2O)c1I (stereo partly drawn) [Compound 32, N-(3-N-methylacetamido-2,4,6-triodobenzoyl)-D-glucosamine]

solubility (Solubility in water; 28°, read-out: Solubility in water at 28°): 14 mg/mL (≈ 18.1 mM)
Structure (SMILES): CNC(=O)c1c(I)c(NC(C)=O)c(I)c(C(=O)N[C@H]2C(O)O[C@H](CO)[C@@H](O)[C@@H]2O)c1I (stereo partly drawn) [Compound 19, N-(3-acetamido-5-N-methylcarbamoyl-2,4,6-triiodobenzoyl)-D-glucosamine]

solubility (Solubility in water; [5]): > 500 mg/mL
Structure (SMILES): CC(=O)NCc1c(I)c(NC(C)=O)c(I)c(C(=O)N(C)C[C@H](O)[C@@H](O)[C@H](O)[C@H](O)CO)c1I [Compound 7, N-(3-Acetamido-5-acetamidomethyl-2,4,6-triiodobenzoyl)-N-methylglucamine]

solubility (Solubility in water; [9]): 214 mg/mL (≈ 287 mM)
solubility (Solubility in water; [5]): 200 to 500 mg/mL (≈ 268 to 671 mM)
Structure (SMILES): CC(=O)N(CCO)c1c(I)c(C(=O)NCCO)c(I)c(N(CCO)C(C)=O)c1I [Compound 45, N-[3,5-bis-N-(β-hydroxyethyl)-acetamido-2,4,6-triiodobenzoyl]-ethanolamine]

solubility (Solubility in water; [5]): > 500 mg/mL
Structure (SMILES): CC(=O)N(C)c1c(I)cc(I)c(C(=O)NC[C@H](O)[C@@H](O)[C@H](O)[C@H](O)CO)c1I [Compound 1, N-(3-N-methylacetamido-2,4,6-triiodobenzoyl)-glucamine]

solubility (Solubility in water; [5]): > 500 mg/mL
Structure (SMILES): CC(=O)N(C)c1c(I)cc(I)c(C(=O)N(C)C[C@H](O)[C@@H](O)[C@H](O)[C@H](O)CO)c1I [Compound 31, N-(3-N-methylacetamido-2,4,6-triiodobenzoyl)-N-methylglucamine]
